# Source: patent US10358449B2, “Xanthine derivative” (priority 2015, dated 2019)
# Marks after values point to notes of the source that are not given here.
# Columns and labels:
# [1] = target: CYP3A4 (Homo sapiens (Human), UniProt P08684); assay: biochemical; assay type: in vitro ADME
# Method: (§1) 1. Test method: human liver microsomes were used to carry out inhibition activity test of the compounds to CYP enzyme. With the system for incubating human liver microsomes in vitro, the content variation of phenacetin, diclofenac, S-mephenytoin, dextromethorphan and midazolam, which were substrates of human liver microsomes CYP1A2, CYP2C9, CYP2C19, CYP2D6, CYP3A4, were measured simultaneously by cocktail probe drug method (which is a disclosed technology), the effects of TSL-0319 under different concentrations on activity of human liver microsomes CYP1A2, CYP2C9, CYP2C19, CYP2D6, CYP3A4 subtypes are evaluated and relevant IC50 was measured.
# [2] = target: CYP2C9 (Homo sapiens (Human), UniProt P11712); assay: biochemical; assay type: in vitro ADME
# Method: as §1
# [3] = target: CYP1A2 (Homo sapiens (Human), UniProt P05177); assay: biochemical; assay type: in vitro ADME
# Method: as §1
# [4] = target: CYP2C19 (Homo sapiens (Human), UniProt P33261); assay: biochemical; assay type: in vitro ADME
# Method: as §1
# [5] = target: CYP2D6 (Homo sapiens (Human), UniProt P10635); assay: biochemical; assay type: in vitro ADME
# Method: as §1
# [6] = system: diabetic mice (B6.BKS(D)-Leprdb/JNju); assay: Glucose tolerance test of diabetic mice (Table 5); assay type: in vivo, mouse; parameters: AUC0-120 min: unit not given beside the values
# Method: (§2) 2. Experimental method: normal mice, obese mice and diabetic mice were used for studying glucose tolerance tests Experimental process of OGTT (Oral Glucose Tolerance Test): fasting for 6 hours before the test begins, 60 min after drug administration, glucose was administrated by gavage (drug concentration 0.6 mg/ml, administration volume 5 ml/kg) (2 g/kg glucose was administrated to diabetic mice; 2 g/kg glucose was administrated to obese mice; and 5 g/kg glucose was administrated to normal mice), blood glucose values at 0 min, 15 min, 30 min, 45 min, 60 min and 120 min are respectively determined after glucose administration, […]
# [7] = system: normal mice (C57BL/6J); assay: Oral glucose tolerance test of normal mice; assay type: in vivo, mouse; parameters: AUC0-120 min: unit not given beside the values
# Method: as §2
# Chain of CYP2C19 (P33261 whole entry): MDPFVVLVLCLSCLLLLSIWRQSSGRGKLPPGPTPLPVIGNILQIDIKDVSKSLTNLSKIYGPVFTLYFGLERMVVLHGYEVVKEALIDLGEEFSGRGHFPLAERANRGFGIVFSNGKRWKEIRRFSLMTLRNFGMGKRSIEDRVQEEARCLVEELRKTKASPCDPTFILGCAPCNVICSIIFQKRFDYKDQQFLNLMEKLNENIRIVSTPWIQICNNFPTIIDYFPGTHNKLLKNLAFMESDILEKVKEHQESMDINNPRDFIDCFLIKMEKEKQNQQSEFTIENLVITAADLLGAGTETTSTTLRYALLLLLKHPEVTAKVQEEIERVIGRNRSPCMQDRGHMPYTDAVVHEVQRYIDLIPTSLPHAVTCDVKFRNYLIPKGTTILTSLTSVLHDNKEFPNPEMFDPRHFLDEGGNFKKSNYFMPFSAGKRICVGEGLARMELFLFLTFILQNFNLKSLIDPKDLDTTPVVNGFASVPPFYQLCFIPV
# Chain of CYP1A2 (P05177 whole entry): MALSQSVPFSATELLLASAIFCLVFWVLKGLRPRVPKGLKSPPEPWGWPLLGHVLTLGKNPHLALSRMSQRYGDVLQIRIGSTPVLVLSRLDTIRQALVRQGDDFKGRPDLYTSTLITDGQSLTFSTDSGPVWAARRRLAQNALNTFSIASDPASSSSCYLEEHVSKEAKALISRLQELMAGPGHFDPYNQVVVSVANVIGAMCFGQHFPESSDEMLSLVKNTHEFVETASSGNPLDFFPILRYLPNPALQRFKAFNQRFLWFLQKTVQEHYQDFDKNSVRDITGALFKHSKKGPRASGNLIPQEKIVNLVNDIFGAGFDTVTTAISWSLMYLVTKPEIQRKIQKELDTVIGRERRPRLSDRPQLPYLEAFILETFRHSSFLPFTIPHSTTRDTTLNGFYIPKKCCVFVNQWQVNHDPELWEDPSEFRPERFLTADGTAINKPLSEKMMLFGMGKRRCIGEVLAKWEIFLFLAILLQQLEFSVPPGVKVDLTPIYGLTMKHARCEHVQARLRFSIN
# Chain of CYP2C9 (P11712 whole entry): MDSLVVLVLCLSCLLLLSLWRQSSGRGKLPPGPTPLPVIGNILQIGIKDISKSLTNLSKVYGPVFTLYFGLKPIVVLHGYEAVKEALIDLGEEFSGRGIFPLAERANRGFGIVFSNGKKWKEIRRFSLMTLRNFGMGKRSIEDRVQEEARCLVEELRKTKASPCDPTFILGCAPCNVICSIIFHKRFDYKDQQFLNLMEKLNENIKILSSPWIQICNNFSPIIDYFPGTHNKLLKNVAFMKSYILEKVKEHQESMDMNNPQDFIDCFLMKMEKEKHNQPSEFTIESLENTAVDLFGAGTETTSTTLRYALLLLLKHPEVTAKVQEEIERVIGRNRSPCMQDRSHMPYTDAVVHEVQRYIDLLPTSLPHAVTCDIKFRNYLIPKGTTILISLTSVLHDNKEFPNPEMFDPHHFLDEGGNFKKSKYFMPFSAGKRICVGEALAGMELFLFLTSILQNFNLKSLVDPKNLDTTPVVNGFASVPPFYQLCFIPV
# Chain of CYP2D6 (P10635 whole entry): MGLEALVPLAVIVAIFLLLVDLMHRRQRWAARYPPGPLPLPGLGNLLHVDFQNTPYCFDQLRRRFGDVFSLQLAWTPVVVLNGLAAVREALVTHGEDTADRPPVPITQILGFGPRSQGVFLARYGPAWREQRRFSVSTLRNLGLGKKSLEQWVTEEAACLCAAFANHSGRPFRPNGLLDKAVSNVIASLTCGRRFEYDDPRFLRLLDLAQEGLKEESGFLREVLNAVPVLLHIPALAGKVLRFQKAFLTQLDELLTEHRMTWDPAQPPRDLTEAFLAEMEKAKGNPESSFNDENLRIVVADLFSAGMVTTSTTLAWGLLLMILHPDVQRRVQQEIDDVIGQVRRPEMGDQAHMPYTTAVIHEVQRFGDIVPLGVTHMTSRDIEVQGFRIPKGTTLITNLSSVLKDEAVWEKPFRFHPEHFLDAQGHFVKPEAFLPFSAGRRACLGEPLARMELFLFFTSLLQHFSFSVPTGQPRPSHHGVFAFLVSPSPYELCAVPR
# Chain of CYP3A4 (P08684 whole entry): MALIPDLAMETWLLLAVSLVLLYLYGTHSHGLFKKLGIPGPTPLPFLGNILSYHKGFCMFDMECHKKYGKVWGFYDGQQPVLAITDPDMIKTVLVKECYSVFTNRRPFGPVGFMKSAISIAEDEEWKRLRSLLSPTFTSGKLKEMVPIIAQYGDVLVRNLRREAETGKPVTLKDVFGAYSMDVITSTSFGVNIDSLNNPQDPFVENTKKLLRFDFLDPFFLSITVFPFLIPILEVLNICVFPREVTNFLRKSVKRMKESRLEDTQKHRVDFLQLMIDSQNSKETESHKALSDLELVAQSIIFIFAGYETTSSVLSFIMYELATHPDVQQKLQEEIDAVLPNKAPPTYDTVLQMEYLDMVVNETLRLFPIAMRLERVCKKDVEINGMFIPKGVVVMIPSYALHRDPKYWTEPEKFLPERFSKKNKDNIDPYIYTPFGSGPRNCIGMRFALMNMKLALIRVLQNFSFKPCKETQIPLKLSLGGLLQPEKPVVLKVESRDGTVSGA
smiles,measurement,setting,value
"CC#CCn1c(N2CCC[C@@H](N)C2)nc2c1c(=O)n(Cc1nccnc1C#N)c(=O)n2C [Compound I-3, 1-[(3-cyano-pyrazine-2-yl)methyl]-3-methyl-7-(2-butyne-1-yl)-8-[(R)-3-amino-piperidine-1-yl]-xanthine]",IC50,[1],> 50 µM
same,inhibition at 0.05 µM,"[1]; human, microsomes",0%
same,inhibition at 0.15 µM,"[1]; human, microsomes",0%
same,inhibition at 0.5 µM,"[1]; human, microsomes",4%
same,inhibition at 1.5 µM,"[1]; human, microsomes",4.4%
same,inhibition at 5 µM,"[1]; human, microsomes",8.7%
same,inhibition at 15 µM,"[1]; human, microsomes",17.9%
same,inhibition at 50 µM,"[1]; human, microsomes",44.6%
same,IC50,[2],> 50 µM
same,inhibition at 0.05 µM,"[2]; human, microsomes",0%
same,inhibition at 0.15 µM,"[2]; human, microsomes",0%
same,inhibition at 0.5 µM,"[2]; human, microsomes",3.2%
same,inhibition at 1.5 µM,"[2]; human, microsomes",5.7%
same,inhibition at 5 µM,"[2]; human, microsomes",10.5%
same,inhibition at 15 µM,"[2]; human, microsomes",12.1%
same,inhibition at 50 µM,"[2]; human, microsomes",13.9%
same,IC50,[3],> 50 µM
same,inhibition at 0.05 µM,"[3]; human, microsomes",0%
same,inhibition at 0.15 µM,"[3]; human, microsomes",0%
same,inhibition at 0.5 µM,"[3]; human, microsomes",2.2%
same,inhibition at 1.5 µM,"[3]; human, microsomes",4.2%
same,inhibition at 5 µM,"[3]; human, microsomes",6.6%
same,inhibition at 15 µM,"[3]; human, microsomes",20.8%
same,inhibition at 50 µM,"[3]; human, microsomes",41.8%
same,IC50,[4],> 50 µM
same,inhibition at 0.05 µM,"[4]; human, microsomes",0%
same,inhibition at 1.5 µM,"[4]; human, microsomes",3.3%
same,inhibition at 5 µM,"[4]; human, microsomes",8.2%
same,inhibition at 15 µM,"[4]; human, microsomes",14%
same,inhibition at 50 µM,"[4]; human, microsomes",2.9%
same,IC50,[5],> 50 µM
same,inhibition at 0.05 µM,"[5]; human, microsomes",0%
same,inhibition at 0.15 µM,"[5]; human, microsomes",0%
same,inhibition at 0.5 µM,"[5]; human, microsomes",0%
same,inhibition at 1.5 µM,"[5]; human, microsomes",0%
same,inhibition at 5 µM,"[5]; human, microsomes",0%
same,inhibition at 15 µM,"[5]; human, microsomes",3%
same,inhibition at 50 µM,"[5]; human, microsomes",14.6%
same,hypoglycemic effect,"[6]; Table 5 mice (diabetic), in words",good hypoglycemic effect
same,Blood glucose concentration 0 min,"[6]; diabetic mice B6.BKS(D)-Leprdb/JNju, drug at -60 min (0.6 mg/ml, 5 ml/kg), 2 g/kg glucose at 0 min",11.84 mmol/L
same,Blood glucose concentration 15 min,"[6]; diabetic mice, 15 min after glucose",32.23 mmol/L
same,Blood glucose concentration 30 min,"[6]; diabetic mice, 30 min after glucose",22.80* mmol/L
same,Blood glucose concentration 45 min,"[6]; diabetic mice, 45 min after glucose",15.70*** mmol/L
same,Blood glucose concentration 60 min,"[6]; diabetic mice, 60 min after glucose",13.80*** mmol/L
same,Blood glucose concentration 120 min,"[6]; diabetic mice, 120 min after glucose",8.75** mmol/L
same,AUC0-120 min,"[6]; diabetic mice, blood glucose AUC",1930**
same,Blood glucose concentration 0 min,"[7]; normal mice C57BL/6J, drug at -60 min (0.6 mg/ml, 5 ml/kg), 5 g/kg glucose at 0 min",8.88* mmol/L
same,hypoglycemic effect,"[7]; normal mice, in words",good hypoglycemic effect
same,Blood glucose concentration 15 min,"[7]; normal mice, 15 min after glucose",14.6*** mmol/L
same,Blood glucose concentration 30 min,"[7]; normal mice, 30 min after glucose",11.0*** mmol/L
same,Blood glucose concentration 45 min,"[7]; normal mice, 45 min after glucose",9.23*** mmol/L
same,Blood glucose concentration 60 min,"[7]; normal mice, 60 min after glucose",9.82*** mmol/L
same,Blood glucose concentration 120 min,"[7]; normal mice, 120 min after glucose",7.58 mmol/L
same,AUC0-120 min,"[7]; normal mice, blood glucose AUC",1185***
